As a reminder, the inhibition is the drop in the measured response relative to a control, in per cent.

A short description of the assay: Ability of a test compound to regulate transcription of a Type I collagen gene using the expression level of a reporter gene (COL-Luc luciferase) as an index. The conditions noted are these: final concentration 1 μM; normal human fetal skin fibroblast transfected with COL-Luc; TGF-β, 40 hours; read-out: inhibition percentage (inhibitory effect on the ability of TGF-β to promote transcription of a Type I collagen gene). The format is cell-based. As for the experimental part: 1×10^8 cells of a normal human fetal skin fibroblast (Clontech, catalogue No. CC-2509) were cultured at 37° C. overnight under 5% CO2 atmosphere. After the cultured cells were washed with a sodium phosphate buffer (hereinafter, referred to as PBS) twice, 3 ml of PBS was added thereto and the cells were scraped away the wall of a vessel using a cell scraper (Nalgen, catalogue No. 179693). The scraped cells were collected by centrifugation (1,500 rpm, 4° C., 15 min), and these were suspended in 20 ml of PBS and centrifuged again. To the resulting precipitates were added 11 ml of Solution 2 and 4.8 μl of pronase of DNA Extraction Kit (Stratagene, catalogue No. 200600). After shaken at 60° C. for 1 hour, the resulting mixture was allowed to stand in ice for 10 minutes. Then, 4 ml of Solution 3 of the kit was added to the mixture. After mixed, the mixture was allowed to stand in ice for 5 minutes and then centrifuged (3,000 rpm, 4° C., 15 min) to recover a supernatant. To the recovered supernatant was added 2 μl of RNase per 1 ml of the supernatant and the mixture was allowed to stand at 37° C. for 15 minutes. To the mixture was added 2-fold volume of ethanol. After mixed, a white thread-like substance (genomic DNA) appeared and the substance was recovered. The recovered genomic DNA washed with 70% ethanol and then air-dried. The air-dried genomic DNA was dissolved in 500 μl of 10 mM Tris-HCl, 1 mM EDTA (pH 8.0) (hereinafter, referred to as TE).
The resulting genomic DNA solution (the amount equivalent to 1 μg of genomic DNA), each 1 μl (10 pmol/μl) of an oligonucleotide consisting of the nucleotide sequence represented by SEQ ID No:1 and an oligonucleotide consisting of the nucleotide sequence represented by SEQ ID No:2, 29 μL of distilled water, 5 μl of the buffer attached to TaKaRa LA Taq (TAKARA SHUZO, catalogue No. RR002A), 5 μL of a Mg^2+ solution, 5 μL of a dNTP mixture and 0.5 μl of TaKaRa LA Taq (TAKARA SHUZO, catalogue No. RR002A) were mixed. After the resulting mixed solution was incubated at 94° C. for 5 minutes, the mixed solution was subjected to 30 cycles, in which one cycle consists of incubation at 94° C. for 1 minute, at 60° C. for 1 minute and then at 72° C. for 1 minute. The mixed solution was electrophoresed on a 2% agarose gel to recover about 0.5 kb of a DNA. The recovered DNA was treated with phenol/chloroform and then precipitated with ethanol to recover the DNA. The resulting DNA was dissolved in ultrapure water. To this solution were added 2.5 μl of NheI and 2.5 μl of HindIII, and then incubated at 37° C. for 3 hours. Then, the solution was electrophoresed on a 2% agarose gel to recover about 3.5 kb of a DNA. The recovered DNA was precipitated with ethanol to recover again the DNA (hereinafter, referred to as the collagen promoter DNA).
On the other hand, the vector pGL3 (Promega, catalogue No. E1751) having the nucleotide sequence encoding firefly luciferase was digested with NheI and HindIII, and then subjected to agarose gel electrophoresis as described above to recover about 5 kb of a DNA. The recovered DNA was precipitated with ethanol to recover the DNA again. To the recovered DNA were added 44 μl of distilled water, 5 μl of Buffer attached to Alkaline Phosphatase (TAKARA SHUZO, catalogue No. 2120A) and 1 μl of Alkaline Phosphatase (TAKARA SHUZO, catalogue No. 2120A). The mixed solution was incubated at 65° C. for 30 minutes. Then, the mixed solution was treated with phenol/chloroform twice, and precipitated with ethanol to recover the DNA (hereinafter referred to as the Luc vector DNA). Then, after about 20 ng of the collagen promoter DNA and about 20 ng of the Luc vector DNA were mixed, the same amount of a DNA Ligation kit Ver2 enzyme solution was added and this was incubated overnight at 16° C. To the mixed solution was added Escherichia coli 5Hdα (TOYOBO, catalogue No. DNA-903), this was allowed to stand in ice for 30 minutes, and then incubated at 42° C. for 45 seconds. […]
A general note: A reporter such as luciferase makes a cellular process visible.

On to `COCCOC(=O)Nc1cccc(C=CC(=O)c2c(N3CCCCC3)c3ccccc3oc2=O)c1` [(18e), 4-piperidino-3-[3-[3-[(2-methoxyethoxy)carbonylamino]phenyl]-1-oxo-2-propenyl]-2H-1-benzopyran-2-one], for which the inhibition at 1 µM is ≥ 70%.

With `C=CCOc1cccc(C=CC(=O)c2c(OCC=C)cc(C)oc2=O)c1` [(1b), 4-allyloxy-3-[3-(3-allyloxyphenyl)-1-oxo-2-propenyl]-6-methyl-2H-pyran-2-one], the inhibition at 1 µM is ≥ 70%.

As to `COc1cc(C)oc(=O)c1C(=O)C=Cc1cccc(C=CC#N)c1` [(2a), 4-methoxy-3-[3-[3-(2-cyanoethenyl)phenyl]-1-oxo-2-propenyl]-6-methyl-2H-pyran-2-one], the inhibition at 1 µM was ≥ 70%.

On to `COCCOC(=O)Nc1cccc(C=CC(=O)c2c(O)c3ccccc3oc2=O)c1` [(24d), 4-hydroxy-3-[3-[3-[(2-methoxyethoxy)carbonylamino]phenyl]-1-oxo-2-propenyl]-2H-1-benzopyran-2-one], for which the inhibition at 1 µM was ≥ 70%.

As for `COCC(=O)Nc1cccc(C=CC(=O)c2c(N3CCCCC3)c3ccccc3oc2=O)c1` [(17e), 4-piperidino-3-[3-[3-(methoxyacetylamino)phenyl]-1-oxo-2-propenyl]-2H-1-benzopyran-2-one], the inhibition at 1 µM was ≥ 70%. Then `N#CCOc1cccc(C=CC(=O)c2c(O)c3ccccc3oc2=O)c1` [(14d), 4-hydroxy-3-[3-[3-(cyanomethoxy)phenyl]-1-oxo-2-propenyl]-2H-1-benzopyran-2-one], with ≥ 70%. Then `COC(=O)CNC(=O)c1cccc(C=CC(=O)c2c(N3CCCCC3)cc(C)oc2=O)c1` [(16b), 4-piperidino-3-[3-[3-[[(methoxycarbonylmethyl)amino]carbonyl]phenyl]-1-oxo-2-propenyl]-6-methyl-2H-pyran-2-one], with ≥ 70%; and `C=CCOc1cccc(C=CC(=O)c2c(OC)cc(C)oc2=O)c1` [(5a), 4-methoxy-3-[3-(3-allyloxyphenyl)-1-oxo-2-propenyl]-6-methyl-2H-pyran-2-one], with ≥ 70%; and `Cc1cc(O)c(C(=O)C=Cc2ccc(C(=O)NCCO)cc2)c(=O)o1` [(32d), 4-hydroxy-3-[3-[4-[(2-hydroxyethyl)aminocarbonyl]phenyl]-1-oxo-2-propenyl]-6-methyl-2H-pyran-2-one], with ≥ 70%. As to `COCC(=O)Nc1cccc(C=CC(=O)c2c(OC)cc(C)oc2=O)c1` [(22a), 4-methoxy-3-[3-[3-(methoxyacetylamino)phenyl]-1-oxo-2-propenyl]-6-methyl-2H-pyran-2-one], the inhibition at 1 µM was ≥ 70%. Consider `COc1c(C(=O)C=Cc2cccc(OCC#N)c2)c(=O)oc2ccccc12` [(15d), 4-methoxy-3-[3-[3-(cyanomethoxy)phenyl]-1-oxo-2-propenyl]-2H-1-benzopyran-2-one], for which the inhibition at 1 µM is ≥ 70%. Then `COCC(=O)Nc1cccc(C=CC(=O)c2c(OC)c3ccccc3oc2=O)c1` [Compound (22d), 4-methoxy-3-[3-[3-(methoxyacetylamino)phenyl]-1-oxo-2-propenyl]-2H-1-benzopyran-2-one], with ≥ 70%; and `COCCOC(=O)Nc1cccc(C=CC(=O)c2c(O)cc(C)oc2=O)c1` [(24a), 4-hydroxy-3-[3-[3-[(2-methoxyethoxy)carbonylamino]phenyl]-1-oxo-2-propenyl]-6-methyl-2H-pyran-2-one], with ≥ 70%. The result for `C#CCNc1cc(C)oc(=O)c1C(=O)C=Cc1cccc(C=CC#N)c1` [(20b), 4-propargylamino-3-[3-[3-(2-cyanoethenyl)phenyl]-1-oxo-2-propenyl]-6-methyl-2H-pyran-2-one] reads ≥ 70%; that for `C#CCOc1cccc(C=CC(=O)c2c(O)cc(C)oc2=O)c1` [(7a), 4-hydroxy-3-[3-(3-propargyloxyphenyl)-1-oxo-2-propenyl]-6-methyl-2H-pyran-2-one], ≥ 70%. On to `COCCOC(=O)Nc1cccc(C=CC(=O)c2c(OC)c3ccccc3oc2=O)c1` [(25d), 4-methoxy-3-[3-[3-[(2-methoxyethoxy)carbonylamino]phenyl]-1-oxo-2-propenyl]-2H-1-benzopyran-2-one], for which the inhibition at 1 µM was ≥ 70%.

Regarding `CSCCOc1cccc(C=CC(=O)c2c(N3CCCCC3)cc(C)oc2=O)c1` [(14b), 4-piperidino-3-[3-[3-(2-methylthioethoxy)phenyl]-1-oxo-2-propenyl]-6-methyl-2H-pyran-2-one], the inhibition at 1 µM was ≥ 70%. The result for `C#CCOc1cccc(C=CC(=O)c2c(OCC=C)cc(C)oc2=O)c1` [(2b), 4-allyloxy-3-[3-(3-propargyloxyphenyl)-1-oxo-2-propenyl]-6-methyl-2H-pyran-2-one] reads ≥ 70%; that for `COCCNC(=O)c1ccc(C=CC(=O)c2c(O)cc(C)oc2=O)cc1` [(36a), 4-hydroxy-3-[3-[4-[(2-methoxyethyl)aminocarbonyl]phenyl]-1-oxo-2-propenyl]-6-methyl-2H-pyran-2-one], ≥ 70%. Consider `COCCOC(=O)Nc1cccc(C=CC(=O)c2c(OC)cc(C)oc2=O)c1` [(25a), 4-methoxy-3-[3-[3-[(2-methoxyethoxy)carbonylamino]phenyl]-1-oxo-2-propenyl]-6-methyl-2H-pyran-2-one], for which the inhibition at 1 µM was ≥ 70%. Then `COc1cc(C)oc(=O)c1C(=O)C=Cc1cccc(OCC#N)c1` [(15a), 4-methoxy-3-[3-[3-(cyanomethoxy)phenyl]-1-oxo-2-propenyl]-6-methyl-2H-pyran-2-one], with ≥ 70%; and `C#CCOc1ccc(C=CC(=O)c2c(OC)cc(C)oc2=O)cc1` [(10a), 4-methoxy-3-[3-(4-propargyloxyphenyl)-1-oxo-2-propenyl]-6-methyl-2H-pyran-2-one], with ≥ 70%.

Values taken from patent US7691883B2, “Cinnamoyl compound and use of the same” (Sumitomo Chemical Company, Limited, priority 2003, dated 2010).
